Measurements from patent US20090028795A1, “NOD1 as an Anti-Tumor Agent” (priority 2005, published 2009).
Starred links: 1 amine or outer side, 2 acyl side, 3 side chain; linkers in the order of their positions; H or OH if unused. Non-standard residues stand in square brackets, D forms with d. No end group written: not given here. mesoDAP = meso-diaminopimelic acid, O=C(O)[C@@H](CCC[C@H](N[*:1])C(=O)[*:2])N[*:3]

What was measured:
MCF-7 C20 cells = experiment: Propidium iodide exclusion cell death assay, Nod1-deficient MCF-7 C20 cells; format: cell-based, human; conditions: C20 cells, charcoal-treated serum, γTriDAP/CHX
Description: (§1) Cell viability assays. Propidium iodide exclusion assay: Cells were stimulated as indicated for 2 days. Subsequently, cells were harvested, washed twice in FACS buffer (PBS containing 1% FCS and 0.1% NaN3) and resuspended in propidium iodide (PI)-containing FACS buffer (4 ug/ml). The extent of cell death was analyzed with a FACSCalibur flow cytometer (Becton Dickinson, Mountain View, Calif.). DAPI staining: MCF-7 cells were plated in chamber slides, and stimulated for 2 days. Cells were washed with PBS and apoptotic nuclei were stained with 1 μg/ml DAPI (Sigma Chemical Co., St. Louis, Mo.). Cells were fixed in 4% paraformaldehyde and examined by fluorescence microscopy.
To further investigate the role of Nod1 in apoptosis, a variety of cell types were incubated with the Nod1 ligand, […] (γTriDAP), which specifically activates Nod1. The cell types tested included the parental MCF-7 cell line, the Nod1-deficient MCF-7C20 clone, and a cell line engineered to contain an additional human Nod1 allele (MCF-7Nod1) so that Nod1 was over-expressed. […] Cells were treated with γTriDAP in the presence or absence of cycloheximide (CHX) and cell death was then determined by propidium iodide staining and flow cytometry.

MCF-7 C20/Nod1 cells = experiment: Propidium iodide exclusion apoptosis assay, estrogen/tamoxifen studies; format: cell-based, human
From the text: FIG. 12A-C illustrates that estrogen increases γTriDAP-induced apoptosis and tamoxifen inhibits γTriDAP-induced apoptosis in various MCF-7 tumor cell lines. FIG. 12A graphically illustrates the percent apoptosis in MCF-7 Blasto, MCF-7 C20 and MCF-7 C20/Nod1 cells cultured in increasing amounts or estrogen and either cycloheximide (CHX) or CHX plus γTriDAP (γTri). FIG. 12B graphically illustrates the percent apoptosis in MCF-7 Blasto, MCF-7 C20 and MCF-7 C20/Nod1 cells cultured in increasing amounts of tamoxifen and either cycloheximide (CHX) or CHX plus γTriDAP (γTri). For the estrogen studies, MCF-7 cells were cultured in charcoal-treated medium and stimulated with γTriDAP/CHX in the presence of increasing concentrations of estrogen (E2) and cell viability was measured by propidium iodide (PI) exclusion. For the tamoxifen studies, cells were treated with tamoxifen prior to addition of γTriDAP/CHX and cell viability measured by PI exclusion. […] Total protein extracts from MCF-7 Blasto, MCF-7 C20 and MCF-7 C20/Nod1 cells and from cells isolated from tumors were analyzed by immunoblotting using antibody against estrogen receptor (ERα), and ERK2 as loading control.
as §1
To determine whether the presence of estrogens modulates Nod1-induced apoptotic pathway, cells were cultured in medium containing charcoal-treated serum.

[1] = tested on: MCF-7 Blasto, MCF-7 C20, MCF-7 C20/Nod1 and MCF-7 RIP2ΔCARD cells; experiment: Estrogen-induced proliferation (3H-thymidine) of MCF-7 cell lines; format: cell-based, human; conditions: for proliferative response to added estrogen: grown in the absence of estrogen
Description: (§2) FIG. 11A-D illustrate that the presence of Nod1 prevents tumor growth in SCID mice. FIG. 11A graphically illustrates the tumor volume in mice injected with MCF-7 C20 (left) and MCF-7 C20/Nod1 (right) cells as a function of time. The cells (3×10^6 cells/mouse) were injected into the flanks of female SCID mice. Tumor size was measured once a week and volume was determined according to the formula (PW2×L)/2. Each line represents tumor growth observed in one mouse (n=4). As illustrated, the tumor volume diminished in mice that received Nod1 expressing tumor cells (C20/Nod1). […] FIG. 11B graphically illustrates that implanting estrogen pellets into mice prior to injection of MCF-7 Blasto, MCF-7 C20 and MCF-7 C20/Nod1 cells (3×10^6 cells/mouse) increases tumor growth except when the tumor cells express Nod1 (the C20/Nod1 cells). […] The tumor volume was determined as described above. FIG. 11C graphically illustrates the tumor volume over time in mice injected with MCF-7 Blasto, MCF-7 C20 and MCF-7 RIP2ΔCARD cells. […] FIG. 11D graphically illustrates tumor cell growth as a function of estrogen concentration. […] MCF-7 Blasto, MCF-7 C20, MCF-7 C20/Nod1 and MCF-7 RIP2ΔCARD cells were exposed to increasing concentrations of 17β-estradiol, pulsed with ^3H-thimidine and cell growth was determined by liquid scintillation. Data are representative of at least 3 independent experiments.
Retroviral transfections. The various genes used in this study were cloned into pMSCV-Blasto, pBabe-Puro or pBabe-Neo retroviral vectors. MCF-7 cells were stably transfected using available procedures. Briefly, amphotropic 293 cells were transfected with retroviral vectors encoding selected Nod1, Nod2 and other proteins. Twenty-four hours post-transfection, cells were incubated at 32° C. overnight to produce viral particles. Target cells were infected the next day with virus-containing 293 cell supernatants containing recombinant retroviral particles. […] Cells were harvested on glass fiber filters and radioactivity measured by liquid scintillation. […]

[2] = tested on: MCF-7 Blasto, MCF-7 C20 and MCF-7 C20/Nod1 tumors; experiment: Xenograft tumor growth in SCID mice with estrogen pellets; format: in vivo
Description: as §2
Human xenografts in nude mice. MCF-7 Blasto, MCF-7 C20 and MCF-7 C20/Nod1 cells were trypsinized, washed once with PBS and resuspended to a concentration of 1.5×10^7/ml. Two hundred microliters of each suspension were inoculated subcutaneously into the flank of athymic SCID/SCID or SCID/Nod (non-obese diabetic) female mice. Tumor size was assessed once a week. Tumor volume was calculated.
In most studies, tumor formation by MCF-7 cells requires supplementation of estrogens for tumorigenesis in nude mice, even when cells are inoculated at high concentration. To further examine the role of estrogen in tumorigenesis, all three cell lines were injected into mice along with estrogen pellets (FIG. 11B). […]

MCF-7 Nod1 cells = experiment: Propidium iodide exclusion cell death assay, MCF-7 cells over-expressing Nod1; format: cell-based, human; conditions: for effect on γTriDAP-induced cell death: caspase inhibitor 50 uM, 30 min before γTriDAP/CHX for 48 h; for effect on γTriDAP-induced apoptosis: inhibitor 100 uM, 30 min prior to γTriDAP/CHX for 48 h
Description: as §1
(§3) To further investigate the role of Nod1 in apoptosis, a variety of cell types were incubated with the Nod1 ligand, […] (γTriDAP), which specifically activates Nod1. The cell types tested included the parental MCF-7 cell line, the Nod1-deficient MCF-7C20 clone, and a cell line engineered to contain an additional human Nod1 allele (MCF-7Nod1) so that Nod1 was over-expressed. To determine whether the resistance of C20 cells to γTriDAP-induced apoptosis resulted from the absence of Nod1, human Nod1 was stably expressed in MCF-7 C20 cells to produce Nod1-sufficient C20 cells (C20/Nod1). As another control, the parental MCF-7 cell line was transfected with an empty retroviral vector to generate MCF-7 Blasto cells. Cells were treated with γTriDAP in the presence or absence of cycloheximide (CHX) and cell death was then determined by propidium iodide staining and flow cytometry.

[3] = tested on: MCF-7 and MCF-7 C20 cells; experiment: Sensitivity to apoptotic stimuli, parental MCF-7 versus MCF-7 C20 cells; format: cell-based, human; conditions: C20 compared with parental cells
From the text: FIG. 1A-C illustrates Nod1 involvement in TNF-induced apoptosis. FIG. 1A provides a schematic diagram of the mutated gene that gave rise to a TNFα-resistant phenotype, and was later identified as a Nod1 mutant bearing a blasticidine (blast) gene insertion. The cell line bearing this Nod1 mutation is the MCF7-C20 cell line. The insertion from the pDisrup retroviral construct was mapped to the Nod1 gene. The junction of blasticidine fused with the Nod1 gene occurred at the 3′ end of the Nod1 gene between leucine-rich region 8 (LRR8) and leucine-rich region 9 (LRR9). […] Cell extracts from MCF-7 parental (called “wt”) and MCF-7 C20 cells were prepared and either immunoprecipitated with a monoclonal anti-NOD1 antibody (upper panel) or directly loaded onto an SDS-PAGE gel (lower panel), then transferred to PVDF membranes. Blots were analyzed by immunoblotting using the same monoclonal anti-NOD1 antibody. […] MCF-7 and MCF-7 C20 cells were treated with increasing concentrations of TNF (0-40 ng/ml) for 20 h. Cell viability was determined by propidium iodide (PI) exclusion assay and flow cytometry.
as §1

MCF-7 cells [4] = experiment: Propidium iodide exclusion cell death assay, wild-type (parental/Blasto) MCF-7 cells; format: cell-based, human
Description: as §1, §3

[5] = tested on: poly(ADP-ribose)polymerase (PARP) and capases 6, 7, 8 and 9; experiment: Western blot of PARP and caspase cleavage in MCF-7 cells; format: cell-based, human; conditions: CHX 0.5 ug/ml, 24 h
Description: Cleavage of PARP and various caspases was detected by Western blot analysis of cell MCF-7 Blasto, MCF-7 C20 and MCF-7 Nod1 after stimulation with γTriDAP, αTriDAP or medium (control) in the presence or absence of CHX (0.5 ug/ml) for 24 h. Cells were harvested, subjected to western blotting and PARP, caspases, p20, p41/43 and p35 were detected with antibodies reactive thereof.
Western blot analysis and immunoprecipitation. Cells were washed extensively and lysed using lysis buffer containing 50 mM Hepes, 100 mM NaCl, 2 mM EDTA, 10% glycerol, 1% Nonidet P-40, 14 μM pepstatin A, 100 uM leupeptin, 3 mM benzamidine, 1 mM PMSF, 1 mM sodium pyrophosphate, 10 mM sodium orthovanadate, 100 U/ml aprotinin, and 100 mM sodium fluoride. After incubation for 30 min on ice, cell lysates were centrifuged (14000 rpm, 10 min, 4° C.) and the supernatants were recovered. For immunoprecipitation, cell lysates were mixed with 5 μg of antibody for 3 hour at 4° C. under constant agitation. Immune complexes were allowed to bind to 20 μl protein A-Sepharose beads overnight, beads were washed three times with lysis buffer. Immunoprecipitates were separated on SDS-PAGE and transferred to PVDF membranes.

MCF-7 cells [6] = experiment: Apoptosis in the presence of TNFα (FIG. 8C); format: cell-based, human; conditions: with TNFα
Description: FIG. 8A-D illustrate that a synergistic relationship exists between NOD1 and TNFα. FIG. 8A graphically illustrates that the percentage of apoptotic cells increases in dose-specific manner as the concentration of NOD1 increases from 0.0 to 100 μg/ml and the concentration of TNFα increases from 0.5 ng/ml to 1 ng/ml. FIG. 8B graphically illustrates that the percentage of apoptotic cells increases in dose-specific manner as the concentration of cycloheximide increases from 0.0 to 3 μg/ml and the concentration of TNFα increases from 0.5 ng/ml to 1 ng/ml. […] FIG. 8D illustrates NOD1 expression at various time points after exposure of MCF-7 cells to TNFα.

SK-BR3 = experiment: Apoptosis (PI staining), SK-BR3 cells; format: cell-based, human; conditions: plus TNFα and cycloheximide (FIG. 9B)
Description: as §1
To determine if Nod1-dependent apoptosis occurs in other human cell lines, a series of epithelial cell lines were examined where Nod1 was stably expressed to enhance sensitivity to activation of the Nod1 pathway. Cells were treated with TNFα (T) and γTriDAP (γ) in the presence or absence of CHX (C) and monitored for viability by PI staining as a measure of apoptosis (Table 1).

17β-estradiol [estrogen]
effect upon apoptosis (MCF-7 C20 cells): little or no effect
effect on γTriDAP-induced apoptosis (MCF-7 C20/Nod1 cells; C20/Nod1 and Blasto cells, charcoal-treated serum, increasing estrogen): apoptosis increased in a dose-dependent manner
proliferative response to added estrogen ([1]; MCF-C20 and MCF-7 RIP2ΔCARD cells): strong proliferative response
proliferative response to added estrogen ([1]; parental and MCF-7 C20/Nod1 cells): neither the parental nor MCF-7 C20/Nod1 cell lines were stimulated to proliferate
tumor growth ([2]; mice injected with MCF-7 Blasto cells, estrogen pellets): tumors grew
tumor growth ([2]; mice injected with MCF-7 C20 cells, estrogen pellets): grew even larger
tumor growth ([2]; mice that received MCF-7 C20/Nod1, estrogen pellets): did not grow tumors

COC(=O)CC(NC(=O)OC(C)(C)C)C(=O)CF [Boc-D-FMK]
effect on γTriDAP-induced cell death (MCF-7 Nod1 cells): abrogated

CC[C@@]1(O)C(=O)OCc2c1cc1n(c2=O)Cc2cc3ccccc3nc2-1 [camptothecin]
sensitivity of MCF-7 C20 cells versus parental MCF-7 cells to induced cell death [3]: equally sensitive

C[C@@H]1C[C@@H]([C@H](O)CC2CC(=O)NC(=O)C2)C(=O)[C@@H](C)C1 [cycloheximide]
cell death / apoptosis (MCF-7 cells [4]; wild type cells, agent alone): No cell death

COc1cccc2c1C(=O)c1c(O)c3c(c(O)c1C2=O)C[C@@](O)(C(=O)CO)C[C@@H]3O[C@H]1C[C@H](N)[C@H](O)[C@H](C)O1 [doxirubicin]
sensitivity of MCF-7 C20 cells versus parental MCF-7 cells to induced cell death [3]: equally sensitive

CC/C(=C(\c1ccccc1)c1ccc(OCCN(C)C)cc1)c1ccccc1 [tamoxifen]
effect on γTriDAP-induced cell death (MCF-7 C20/Nod1 cells; MCF-7 cell lines treated prior to γTriDAP/CHX (FIG. 12B)): partially blocked
effect on estrogen-induced proliferation ([1]; MCF-7 C20 cells (data not shown)): blocked

IETD
effect on γTriDAP-induced apoptosis (MCF-7 Nod1 cells): marked inhibitory effects

TNFα
sensitivity of MCF-7 C20 cells versus parental MCF-7 cells to induced cell death [3]: significantly more resistant

z-VAD-FMK
effect on γTriDAP-induced cell death (MCF-7 Nod1 cells): abrogated
effect on γTriDAP-induced apoptosis (MCF-7 Nod1 cells): blocked γTriDAP-induced apoptosis nearly completely

αTriDAP: inactive control tri-peptide where mesoDAP was bound to Glu in the α position rather than in the γ position (Ala-Glu-[mesoDAP]; not fully specified)
cell death (MCF-7 cells [4]; MCF-7 cells, in the presence of cycloheximide): did not induce cell death
proteolytic cleavage of PARP and capases 6, 7, 8 and 9 [5]: not
apoptosis in the presence of TNFα (MCF-7 cells [6]): may actually inhibit apoptosis
apoptosis of SKBR3 cells (SK-BR3): reduced apoptosis
